Reference: paper PMC4325971, “Sex-Differences in Renal Expression of Selected Transporters and Transcription Factors in Lean and Obese Zucker Spontaneously Hypertensive Fatty Rats” (Journal of Diabetes Research, 2015)

Key:
Assay in all cases: inhibition of [3H]cGMP uptake in OAT2-HEK293 cells
Type in all cases: cell-based
[1] = molecular target: T1, human OAT2 (organic anion transporter 2) (Homo sapiens, UniProt Q9Y694)
T1 construct: gene SLC22A7; full-length human OAT2 stably transfected in HEK293 cells (PortaCellTec Biosciences)
T1 sequence (Q9Y694 1-548): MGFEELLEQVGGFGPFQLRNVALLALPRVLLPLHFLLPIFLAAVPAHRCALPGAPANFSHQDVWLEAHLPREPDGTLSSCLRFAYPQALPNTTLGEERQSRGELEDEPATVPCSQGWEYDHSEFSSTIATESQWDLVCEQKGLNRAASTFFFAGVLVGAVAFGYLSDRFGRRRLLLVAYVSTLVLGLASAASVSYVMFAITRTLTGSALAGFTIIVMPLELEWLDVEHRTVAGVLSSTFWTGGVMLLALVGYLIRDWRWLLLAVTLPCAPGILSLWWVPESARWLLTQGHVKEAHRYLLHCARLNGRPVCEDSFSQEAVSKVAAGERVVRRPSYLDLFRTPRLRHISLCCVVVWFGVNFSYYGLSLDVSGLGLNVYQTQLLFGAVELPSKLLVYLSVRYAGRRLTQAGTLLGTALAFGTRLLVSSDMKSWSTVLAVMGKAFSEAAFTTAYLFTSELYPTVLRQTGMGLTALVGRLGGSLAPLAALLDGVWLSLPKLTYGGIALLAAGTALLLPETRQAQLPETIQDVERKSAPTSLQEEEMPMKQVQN

[2] = molecular target: T1, human OAT2 (organic anion transporter 2); conditions: 500 μM inhibitor, 10 μM cGMP, 5 min, 37°C, pH 7.4
[3] = molecular target: T1, human OAT2 (organic anion transporter 2); conditions: read-out: % inhibition at 500 μM

Row | SMILES | % inhibition at 500 μM [2] | also measured
1 | CCCCNc1cc(C(=O)O)cc(S(N)(=O)=O)c1Oc1ccccc1 [bumetanide] | – | IC50 [1]: 130 ± 21.8 µM
2 | CCOC(=O)[C@H](CCc1ccccc1)N[C@@H](C)C(=O)N1CCC[C@H]1C(=O)O [enalapril] | weak inhibition of OAT2-mediated cGMP uptake by high concentrations of sitagliptin and enalapril | –
3 | COc1cc(CC(=O)O)ccc1O [homovanillic acid] | significantly decreased in the presence of the dopamine metabolite homovanillate | –
4 | COc1ccc2c(c1)c(CC(=O)O)c(C)n2C(=O)c1ccc(Cl)cc1 [indomethacin] | OAT2 transport function was abolished by indomethacin | –
5 | N[C@@H](CC(=O)N1CCn2c(nnc2C(F)(F)F)C1)Cc1cc(F)c(F)cc1F [sitagliptin] | – | inhibition at 500 µM [3]: ~25%
